Consider 21 compounds from BindingDB's records for doi:10.7270/Q2TX3CSC (Vanderbilt Screening Center for GPCRs, Ion Channels and …, 2009).

pEC50: −log10 of the molar value.

One assay concerns the target T1, Solute carrier family 12 member 5 (Homo sapiens, UniProt Q9H2X9).
T1 sequence (Q9H2X9 whole entry): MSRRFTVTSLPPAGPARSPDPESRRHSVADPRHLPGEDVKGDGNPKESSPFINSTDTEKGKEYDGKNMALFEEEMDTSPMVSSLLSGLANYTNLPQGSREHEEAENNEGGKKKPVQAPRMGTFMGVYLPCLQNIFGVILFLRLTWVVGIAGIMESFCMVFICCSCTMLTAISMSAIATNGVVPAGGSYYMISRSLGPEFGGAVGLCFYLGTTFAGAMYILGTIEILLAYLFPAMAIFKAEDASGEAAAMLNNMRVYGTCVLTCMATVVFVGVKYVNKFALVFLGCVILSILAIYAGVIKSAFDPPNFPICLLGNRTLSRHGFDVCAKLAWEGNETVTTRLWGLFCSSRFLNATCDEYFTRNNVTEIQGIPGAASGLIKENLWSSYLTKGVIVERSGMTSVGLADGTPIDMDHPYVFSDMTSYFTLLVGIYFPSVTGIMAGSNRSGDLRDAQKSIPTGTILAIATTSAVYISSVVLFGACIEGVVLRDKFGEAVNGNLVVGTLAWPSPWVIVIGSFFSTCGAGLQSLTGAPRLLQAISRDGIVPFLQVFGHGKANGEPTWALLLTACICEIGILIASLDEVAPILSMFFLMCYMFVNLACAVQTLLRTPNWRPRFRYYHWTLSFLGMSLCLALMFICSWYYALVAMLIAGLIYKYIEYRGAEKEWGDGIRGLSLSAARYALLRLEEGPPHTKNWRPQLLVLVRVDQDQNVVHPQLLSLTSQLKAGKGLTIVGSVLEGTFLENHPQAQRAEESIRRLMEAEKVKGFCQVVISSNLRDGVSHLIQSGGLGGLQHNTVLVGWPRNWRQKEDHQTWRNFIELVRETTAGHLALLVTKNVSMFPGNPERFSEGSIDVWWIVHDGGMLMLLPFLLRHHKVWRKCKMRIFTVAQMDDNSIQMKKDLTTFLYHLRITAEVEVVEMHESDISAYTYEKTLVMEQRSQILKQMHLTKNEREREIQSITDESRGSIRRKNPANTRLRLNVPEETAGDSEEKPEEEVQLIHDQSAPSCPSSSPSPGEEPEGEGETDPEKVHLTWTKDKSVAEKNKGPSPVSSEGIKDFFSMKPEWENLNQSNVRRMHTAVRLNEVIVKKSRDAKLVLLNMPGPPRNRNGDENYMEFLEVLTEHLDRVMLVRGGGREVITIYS
Nature of the assay: KCC2 modulator potency by thallium flux, dose response, cell-based, HEK293 KCC2, FluoZin-2 fluorescence (AID 1736).
Details: not given
As usually defined, the pEC50 is the negative decadic logarithm of the EC50, by convention in mol/L. A lower pEC50 goes with a large EC50. `O=C(CSc1ncccc1-c1nc2ccccc2[nH]1)N1CCN(c2ccccc2F)CC1` [MLS000033700] had a negative logarithm of the EC50 (pEC50) of 4.46. `Sc1nnc(Cc2c[nH]c3ccccc23)o1` [5-(1H-indol-3-ylmethyl)-1,3,4-oxadiazole-2(3H)-thione] gave a pEC50 of 4.79. Compound `CS/C(=N\Cc1ccc(F)cc1)NS(=O)(=O)c1cccs1` [3-(4-fluorobenzyl)-2-methyl-1-(2-thienylsulfonyl)isothiourea] gave a negative-log EC50 (pEC50) of 6.15. Consider `O=S(=O)(NCCc1ccccc1F)c1cccc(S(=O)(=O)N2CCOCC2)c1` [MLS000076090], for which the negative logarithm of the EC50 (pEC50) is 5.78. In turn, `Cc1ccc(C(=O)CC=Nc2ccccc2C(N)=O)cc1` [2-[[(E)-3-(4-methylphenyl)-3-oxidanylidene-prop-1-enyl]amino]benzamide] had a negative-log EC50 (pEC50) of 5.47.

In turn, `CNC(=O)/C(=C\C=C\c1ccccc1)NC(=O)c1ccc([N+](=O)[O-])cc1` [MLS000570424] had a negative logarithm of the EC50 (pEC50) of 5.55.

Turning to `O=C(NCc1nc(-c2ccccc2)cs1)c1ccccc1` [MLS000661971], the pEC50 was 5.19.

`CCc1ccc(Nc2nnc(SCc3cc(=O)n4ccsc4n3)s2)cc1` [7-[[5-(4-ethylanilino)-1,3,4-thiadiazol-2-yl]sulfanylmethyl]-[1,3]thiazolo[3,2-a]pyrimidin-5-one] had a negative logarithm of the EC50 (pEC50) of 6.69. This pEC50 is 1.50 log units higher than that of the compound before.

The compound `COc1ccc(N2C(=S)N=C(Nc3cccc(C)c3)C23CCCCC3)cc1` [1-(4-methoxyphenyl)-4-(3-methylanilino)-1,3-diazaspiro[4.5]dec-3-ene-2-thione] had a pEC50 of 3.11. For the compound `Cc1oc(-c2ccccc2)nc1C[S+]([O-])CC(=O)N1CCc2ccccc2C1` (stereo unspecified) [1-(3,4-dihydro-1H-isoquinolin-2-yl)-2-[(5-methyl-2-phenyl-1,3-oxazol-4-yl)methylsulfinyl]ethanone], the negative logarithm of the EC50 (pEC50) is 5.11. `CCn1nnnc1SCC(=O)Nc1nc(-c2cccs2)cs1` [2-(1-Ethyl-1H-tetrazol-5-ylsulfanyl)-N-(4-thiophen-2-yl-thiazol-2-yl)-acetamide] gave a pEC50 of 5.88. As for `COc1cccc(Nc2nnc(S)s2)c1` [5-(3-methoxyanilino)-3H-1,3,4-thiadiazole-2-thione], the negative logarithm of the EC50 (pEC50) was 5.52. Still for that read-out and setting: the figure for `CN(C)S(=O)(=O)c1ccc(Cl)c(C(=O)Nc2nc3ccccc3[nH]2)c1` [SMR000370637] is 5.68. As to `Sc1nnc(Nc2ccccc2)s1` [5-anilino-3H-1,3,4-thiadiazole-2-thione], the pEC50 is 5.55. In the case of `O=C(C1CC1)N1CCc2cc(S(=O)(=O)NC3CCN(Cc4ccccc4)CC3)ccc21` [1-[cyclopropyl(oxo)methyl]-N-[1-(phenylmethyl)-4-piperidinyl]-2,3-dihydroindole-5-sulfonamide], the pEC50 is 5.20. On the same count and under the same terms, with `CCOc1[nH]n(-c2ccccc2)c(=O)c1C=Nc1ccc(F)cc1F` [(4E)-4-[[[2,4-bis(fluoranyl)phenyl]amino]methylidene]-5-ethoxy-2-phenyl-pyrazol-3-one] the figure was 6.34; with `CC1CCN(C(=O)CSc2ccc(-c3ccc(F)cc3)nn2)CC1` [2-[6-(4-Fluoro-phenyl)-pyridazin-3-ylsulfanyl]-1-(4-methyl-piperidin-1-yl)-ethanone], 5.58. Compound `O=C(NN1C(=O)/C(=C/c2nc3ccccc3[nH]2)SC1=S)c1ccccc1Cl` [N-{5-[1-(1H-Benzoimidazol-2-yl)-meth-(Z)-ylidene]-4-oxo-2-thioxo-thiazolidin-3-yl}-2-chloro-benzamide] gave a pEC50 of 7.09.

Still in this assay, the particulars now being: inactive by the depositor's call.
`O=C(O)/C=C/c1cn(Cc2ccccc2)nc1-c1ccc(Cl)cc1` [(E)-3-[1-benzyl-3-(4-chlorophenyl)pyrazol-4-yl]acrylic acid] had a pEC50 of 4.58. `Cc1cc2ccccn2c1C(=O)c1nc(N2CCOCC2)ncc1Cl` [(5-chloranyl-2-morpholin-4-yl-pyrimidin-4-yl)-(2-methylindolizin-3-yl)methanone] gave a pEC50 of 4.96. In the case of `COc1ccccc1-c1nc(C#N)c(N2CCC(Cc3ccccc3)CC2)o1` [2-(2-methoxyphenyl)-5-[4-(phenylmethyl)-1-piperidinyl]-4-oxazolecarbonitrile], the negative-log EC50 (pEC50) is 6.13. This pEC50 lies 1.17 log units higher than the previous one.
